Test system: RFP-GFP-LC3 expressing HeLa cells
Test: RFP-GFP-LC3 (tfLC3) fluorescence image-based autophagy assay
Type: cell-based
From the text: Prompted by the fact that many available autophagy chemical modulators lack either potency or specificity (Kimura et al., 2013), a fluorescence image-based assay was set up to screen small molecules affecting autophagy. HeLa cells, an autophagy competent cell line, were infected with lentiviruses carrying expression cassettes that encode RFP-GFP-LC3 (tfLC3) (Kimura et al., 2007). Thus, the LC3-II positive autophagosomes are labeled with both GFP and RFP signals shown as yellow puncta, and after fusion with lysosomes, autolysosomes are shown as red only puncta because GFP loses its fluorescence in acidic pH.
Next, a panel of small chemicals that are commercially available and have been previously shown to affect vesicle trafficking or organelle morphology were selected and screened for their effects on autophagy regulation in tfLC3 expressing HeLa cells (data not shown).

SMILES	LC3 puncta (yellow = autophagosomes, red only = autolysosomes)
CO/C1=C\C(C)=C\[C@@H](C)[C@@H](O)[C@@H](C)C/C(C)=C/C=C/[C@H](OC)[C@@H]([C@@H](C)[C@@H](O)[C@H](C)[C@@]2(O)C[C@@H](O)[C@H](C)[C@@H](C(C)C)O2)OC1=O [bafilomycin, Bafilomycin A1]	markedly induced the accumulation of yellow puncta only
CCN(CC)CCCC(C)Nc1ccnc2cc(Cl)ccc12 (centres unmarked) [CQ, Chloroquine]	markedly induced the accumulation of yellow puncta only
